Like-named read-outs stand apart in the source and are kept apart here.
Target: hTRPV3 (Homo sapiens (Human), UniProt Q8NET8)
Test: Whole-cell patch clamp, hTRPV3 Phase 1 / Phase 2 currents
Assay type: cell-based
Outline: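 Currents are activated by 20 μM 2-APB or by perfusate at 28 °C or warmer, in Ringer's solution, and quantified at ±80 mV.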

[1] = Phase 1 current, inward, whole-cell patch clamp, read-out: hTRPV3 Patch P1 Inwd
[2] = Phase 1 current, read-out: hTRPV3 (nM) (Phase 1)
[3] = Phase 2 current, inward, whole-cell patch clamp, read-out: hTRPV3 Patch P2 Inwd
[4] = Phase 2 current, read-out: hTRPV3 (nM) (Phase 2)

hTRPV3, sequence (Q8NET8 whole entry): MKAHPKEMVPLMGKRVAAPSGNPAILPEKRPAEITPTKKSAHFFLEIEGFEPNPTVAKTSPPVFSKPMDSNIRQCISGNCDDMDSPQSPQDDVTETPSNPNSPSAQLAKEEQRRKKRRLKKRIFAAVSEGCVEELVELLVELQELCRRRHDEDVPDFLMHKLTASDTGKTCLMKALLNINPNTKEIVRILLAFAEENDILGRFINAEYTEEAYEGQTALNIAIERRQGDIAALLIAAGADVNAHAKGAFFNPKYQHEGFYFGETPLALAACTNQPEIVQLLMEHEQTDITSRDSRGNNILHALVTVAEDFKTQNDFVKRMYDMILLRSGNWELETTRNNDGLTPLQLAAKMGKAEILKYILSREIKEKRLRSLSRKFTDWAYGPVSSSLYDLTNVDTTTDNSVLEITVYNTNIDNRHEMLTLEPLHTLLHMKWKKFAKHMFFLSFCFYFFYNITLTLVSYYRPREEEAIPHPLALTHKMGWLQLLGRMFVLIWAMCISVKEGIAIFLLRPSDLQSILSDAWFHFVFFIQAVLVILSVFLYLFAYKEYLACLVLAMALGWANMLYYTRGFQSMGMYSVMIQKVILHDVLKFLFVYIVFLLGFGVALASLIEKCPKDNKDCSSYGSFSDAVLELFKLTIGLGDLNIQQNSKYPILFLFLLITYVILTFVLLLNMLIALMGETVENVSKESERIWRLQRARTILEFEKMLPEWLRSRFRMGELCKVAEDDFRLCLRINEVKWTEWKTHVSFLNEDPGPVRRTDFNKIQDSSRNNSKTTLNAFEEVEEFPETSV

Row | Compound | IC50 [1] [nM] | IC50 [2] [nM] | IC50 [3] [nM] | IC50 [4] [nM]
1 | CCCc1ccccc1Oc1ccc(N2CC[C@H](Oc3ncccc3Cl)C2)c(CO)c1 [Compound 1-266, (S)-(2-(3-(3-chloropyridin-2-yloxy)pyrrolidin-1-yl)-5-(2-propylphenoxy)phenyl)methanol] | < 10 | 2.65 |  | 
2 | CC(C)(C)OC(=O)NCc1ccc(-c2ccc(N3CC[C@H](Oc4ccc(C(F)(F)F)cn4)C3)c(CO)c2)cc1 [Compound 1-269, (S)-tert-butyl (3′-(hydroxymethyl)-4′-(3-(5-(trifluoromethyl)pyridin-2-yloxy)pyrrolidin-1-yl)biphenyl-4-yl)methylcarbamate] | > 1000 | > 3200 |  | 
3 | CC(C)c1ccccc1Oc1ccc(N2CC[C@H](Oc3ncccc3Cl)C2)c(CO)c1 [Compound 1-271, (S)-(2-(3-(3-chloropyridin-2-yloxy)pyrrolidin-1-yl)-5-(2-isopropylphenoxy)phenyl)methanol] | < 10 | 2.01 |  | 
4 | OCc1cc(C2CCOCC2)ccc1N1CC[C@H](Oc2ccc(C(F)(F)F)cn2)C1 [Compound 1-276, (S)-(5-(tetrahydro-2H-pyran-4-yl)-2-(3-(5-(trifluoromethyl)pyridin-2-yloxy)pyrrolidin-1-yl)phenyl)methanol] | > 1000 | > 3200 |  | 
5 | OCc1cc(C(O)c2ccc(F)cc2)ccc1N1CC[C@H](Oc2ncccc2Cl)C1 (stereo partly drawn) [Compound 1-278, (4-((S)-3-(3-chloropyridin-2-yloxy)pyrrolidin-1-yl)-3-(hydroxymethyl)phenyl)(4-fluorophenyl)methanol] | 100 to 1000 | 254 |  | 
6 | OCc1cc(C2=CCOCC2)ccc1N1CC[C@H](Oc2ccc(C(F)(F)F)cn2)C1 [Compound 1-280, (S)-(5-(3,6-dihydro-2H-pyran-4-yl)-2-(3-(5-(trifluoromethyl)pyridin-2-yloxy)pyrrolidin-1-yl)phenyl)methanol] | > 1000 | ~3600 |  | 
7 | Cc1cccc(C(O)c2ccc(N3CC[C@H](Oc4ncccc4Cl)C3)c(CO)c2)c1 (stereo partly drawn) [Compound 1-281, (4-((S)-3-(3-chloropyridin-2-yloxy)pyrrolidin-1-yl)-3-(hydroxymethyl)phenyl)(m-tolyl)methanol] | > 1000 | 1100 |  | 
8 | OCc1cc(Oc2ccc(Cl)cc2)ccc1N1CC[C@H](Oc2ccccn2)C1 [Compound 1-283] | 100 to 1000 | 283 |  | 
9 | OCc1cc(Br)ccc1N1C[C@@H](O)[C@H](Oc2ccc(C(F)(F)F)cn2)C1 [Compound 1-284] | > 1000 | 1630 |  | 
10 | OCc1cc(Oc2ccc(Cl)cc2)ccc1N1C[C@@H](O)[C@H](Oc2ccc(C(F)(F)F)cn2)C1 [Compound 1-285] | > 1000 | > 3200 | > 1000 | ~4900
11 | COCc1ccc(C(=O)c2ccc(N3CC[C@H](Oc4ncccc4Cl)C3)c(CO)c2)cc1 [Compound 1-286] | 100 to 1000 | 607 |  | 
12 | Cc1ccc(C(O)c2ccc(N3CC[C@H](Oc4ncccc4Cl)C3)c(CO)c2)cc1 (stereo partly drawn) [Compound 1-287, (4-((S)-3-(3-chloropyridin-2-yloxy)pyrrolidin-1-yl)-3-(hydroxymethyl)phenyl)(p-tolyl)methanol] | 100 to 1000 | 674 |  | 
13 | O=C(c1ccc(Cl)cc1)c1ccc(N2CC[C@H](Oc3ncccc3Cl)C2)c(CO)c1 [Compound 1-288, (S)-(4-chlorophenyl)(4-(3-(3-chloropyridin-2-yloxy)pyrrolidin-1-yl)-3-(hydroxymethyl)phenyl)methanone] | 10 to 100 |  |  | 
14 | COCc1ccc(C(O)c2ccc(N3CC[C@H](Oc4ncccc4Cl)C3)c(CO)c2)cc1 (stereo partly drawn) [Compound 1-290, (4-((S)-3-(3-chloropyridin-2-yloxy)pyrrolidin-1-yl)-3-(hydroxymethyl)phenyl)(4-(methoxymethyl)phenyl)methanol] | > 1000 | > 3200 | > 1000 | > 3200
15 | O=C(c1ccc(Cl)cc1)c1ccc(N2CC[C@H](Oc3ncccc3Cl)C2)c(CCO)c1 [Compound 1-291, (S)-(4-chlorophenyl)(4-(3-(3-chloropyridin-2-yloxy)pyrrolidin-1-yl)-3-(2-hydroxyethyl)phenyl)methanone] | 100 to 1000 | ~188 | 100 to 1000 | ~217
16 | OCCc1cc(C(O)c2ccc(Cl)cc2)ccc1N1CC[C@H](Oc2ncccc2Cl)C1 (stereo partly drawn) [Compound 1-292, 2-(5-((4-chlorophenyl)(hydroxy)methyl)-2-((S)-3-(3-chloropyridin-2-yloxy)pyrrolidin-1-yl)phenyl)ethanol] | > 1000 | ~4900 | > 1000 | ~5100
17 | O=C(c1ccc(F)cc1)c1ccc(N2CC[C@H](Oc3ncccc3F)C2)c(CO)c1 [Compound 1-293, (S)-(4-fluorophenyl)(4-(3-(3-fluoropyridin-2-yloxy)pyrrolidin-1-yl)-3-(hydroxymethyl)phenyl)methanone] | 100 to 1000 | 329 | 100 to 1000 | 322

Row | Compound | IC50 [1] [nM] | IC50 [2] [nM] | IC50 [3] [nM] | IC50 [4] [nM]
18 | O=C(c1ccc(F)cc1)c1ccc(N2CC[C@H](Oc3ncccc3Cl)C2)c(CCO)c1 [Compound 1-294, (S)-(4-(3-(3-chloropyridin-2-yloxy)pyrrolidin-1-yl)-3-(2-hydroxyethyl)phenyl)(4-fluorophenyl)methanone] | 100 to 1000 | 511 | 100 to 1000 | 502
19 | Cc1ccc(C(=O)c2ccc(N3CC[C@H](Oc4ncccc4Cl)C3)c(CCO)c2)cc1 [Compound 1-295, (S)-(4-(3-(3-chloropyridin-2-yloxy)pyrrolidin-1-yl)-3-(2-hydroxyethyl)phenyl)(p-tolyl)methanone] | 100 to 1000 | ~225 | 100 to 1000 | ~178
20 | OCCc1cc(C(O)c2ccc(F)cc2)ccc1N1CC[C@H](Oc2ncccc2Cl)C1 (stereo partly drawn) [Compound 1-296, 2-(2-((S)-3-(3-chloropyridin-2-yloxy)pyrrolidin-1-yl)-5-((4-fluorophenyl)(hydroxy)methyl)phenyl)ethanol] | > 1000 | 1070 | > 1000 | 2160
21 | OCc1cc(Oc2ccccc2F)ccc1N1CC[C@H](Oc2ncccc2F)C1 [Compound 1-298, (S)-(5-(2-fluorophenoxy)-2-(3-(3-fluoropyridin-2-yloxy)pyrrolidin-1-yl)phenyl)methanol] | 10 to 100 | 65.7 | 10 to 100 | 52.9
22 | CC(C)(C)OC(=O)N1CC=C(c2ccc(N3CC[C@H](Oc4ccc(C(F)(F)F)cn4)C3)c(CCO)c2)CC1 [Compound 1-299, (S)-tert-butyl 4-(3-(2-hydroxyethyl)-4-(3-(5-(trifluoromethyl)pyridin-2-yloxy)pyrrolidin-1-yl)phenyl)-5,6-dihydropyridine-1 (2H)-carboxylate] | > 1000 | > 3200 |  | 
23 | Cc1ccc(C(=O)c2ccc(N3CC[C@H](Oc4ncccc4F)C3)c(CO)c2)cc1 [Compound 1-300, (S)-(4-(3-(3-fluoropyridin-2-yloxy)pyrrolidin-1-yl)-3-(hydroxymethyl)phenyl)(p-tolyl)methanone] | 100 to 1000 | 860 |  | 
24 | CC(C)(C)OC(=O)N1CCC(c2ccc(N3CC[C@H](Oc4ccc(C(F)(F)F)cn4)C3)c(CCO)c2)CC1 [Compound 1-301, (S)-tert-butyl 4-(3-(2-hydroxyethyl)-4-(3-(5-(trifluoromethyl)pyridin-2-yloxy)pyrrolidin-1-yl)phenyl)piperidine-1-carboxylate] | > 1000 | ~2980 |  | 
25 | COc1ccc(Oc2ccc(N3CC[C@H](Oc4ccccn4)C3)c(CO)c2)cc1 [Compound 1-302] | 100 to 1000 | 282 |  | 
26 | OCc1cc(Oc2ccc(Cl)c(C(F)(F)F)c2)ccc1N1CC[C@H](Oc2ccccn2)C1 [Compound 1-303] | 10 to 100 | 56.3 |  | 
27 | N#Cc1cc(Br)ccc1N1CC[C@H](Oc2ncccc2Cl)C1 [Compound 1-305] | > 1000 |  |  | 
28 | CC(=O)c1ccc(Oc2ccc(N3CC[C@H](Oc4ccccn4)C3)c(CO)c2)c(F)c1 [Compound 1-306] | 100 to 1000 | 982 | 100 to 1000 | 735
29 | OCc1cc(Oc2cccc(OC(F)(F)F)c2)ccc1N1CC[C@H](Oc2ccccn2)C1 [Compound 1-307] | 10 to 100 | ~59.5 |  | 
30 | CCc1ccccc1Oc1ccc(N2CC[C@H](Oc3ncccc3Cl)C2)c(C#N)c1 [Compound 1-308] | > 1000 | > 3200 |  | 
31 | Cc1ccc(C(=O)c2ccc(N3CC[C@H](Oc4ncccc4F)C3)c(CCO)c2)cc1 [Compound 1-309, (S)-(4-(3-(3-fluoropyridin-2-yloxy)pyrrolidin-1-yl)-3-(2-hydroxyethyl)phenyl)(p-tolyl)methanone] | > 1000 | ~2080 | 100 to 1000 | 822
32 | Cc1ccc(C(O)c2ccc(N3CC[C@H](Oc4ncccc4Cl)C3)c(CCO)c2)cc1 (stereo partly drawn) [Compound 1-310, 2-(2-((S)-3-(3-chloropyridin-2-yloxy)pyrrolidin-1-yl)-5-(hydroxy(p-tolyl)methyl)phenyl)ethanol] | > 1000 | 4200 |  | 
33 | O=C(c1cccc(F)c1)c1ccc(N2CC[C@H](Oc3ncccc3Cl)C2)c(CCO)c1 [Compound 1-311, (S)-(4-(3-(3-chloropyridin-2-yloxy)pyrrolidin-1-yl)-3-(2-hydroxyethyl)phenyl)(3-fluorophenyl)methanone] | 100 to 1000 | 417 |  | 
34 | OCCc1cc(C(O)c2cccc(F)c2)ccc1N1CC[C@H](Oc2ncccc2Cl)C1 (stereo partly drawn) [Compound 1-312, 2-(2-((S)-3-(3-chloropyridin-2-yloxy)pyrrolidin-1-yl)-5-((3-fluorophenyl)(hydroxy)methyl)phenyl)ethanol] | > 1000 | ~1920 |  | 
